In data set [1] the target is Glycogen synthase kinase-3 beta (Homo sapiens, UniProt P49841). Briefly: Inhibition of GSK3-beta.
The subject of the next data set is Escherichia coli. Briefly: Antibacterial activity against Escherichia coli ATCC 8739. Type of data set: ADME, organism-based.
A further data set relates to Staphylococcus aureus. Briefly: Antibacterial activity against Staphylococcus aureus Smith. Type of data set: ADME, organism-based.

Values after ≈ are worked out from the molar mass of the structure shown.

Glycogen synthase kinase-3 beta, sequence (P49841 whole entry): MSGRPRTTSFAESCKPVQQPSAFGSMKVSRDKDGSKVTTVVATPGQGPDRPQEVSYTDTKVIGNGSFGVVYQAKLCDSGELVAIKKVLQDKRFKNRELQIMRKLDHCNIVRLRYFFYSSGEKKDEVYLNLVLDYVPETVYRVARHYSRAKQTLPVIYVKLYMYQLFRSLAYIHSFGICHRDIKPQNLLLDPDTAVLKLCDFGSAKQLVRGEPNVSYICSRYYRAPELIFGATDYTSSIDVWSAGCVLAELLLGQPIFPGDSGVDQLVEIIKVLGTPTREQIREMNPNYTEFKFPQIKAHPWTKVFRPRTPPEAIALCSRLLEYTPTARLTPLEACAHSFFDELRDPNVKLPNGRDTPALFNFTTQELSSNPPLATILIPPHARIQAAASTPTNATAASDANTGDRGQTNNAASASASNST

As a reminder, the IC50 is the concentration at which inhibition is half-maximal. Low readings indicate inhibition by little substance, high ones a need for much substance. `C[C@H]1COc2c(NCCNc3ccccn3)c(F)c(N)c3c(=O)c(C#N)cn1c23` showed a concentration for half-maximal inhibition (IC50) in data set [1] of 0.00057 µM. That is a sub-nanomolar value.
With `C[C@H]1COc2c(NCCNc3ccccn3)c(F)c(N)c3c(=O)c(C(N)=O)cn1c23`, the MIC against Escherichia coli and against Staphylococcus aureus was more than 285 µM throughout. In data set [1], this compound yielded a concentration for half-maximal inhibition (IC50) of 0.033 µM.
As to `C[C@H]1COc2c(NCCCn3ccnc3)c(F)c(N)c3c(=O)c(C#N)cn1c23`, the MIC against Escherichia coli and against Staphylococcus aureus was more than 306 µM in each case. This compound registered a concentration for half-maximal inhibition (IC50) in data set [1] of 0.001 µM.
In data set [1], `C[C@H]1COc2c(NCCCc3ccccc3)c(F)c(N)c3c(=O)c(C#N)cn1c23` returned a half-maximal inhibitory concentration (IC50) of 0.0014 µM.
For `C[C@H]1COc2c(NCCCn3ccnc3)c(F)c(N)c3c(=O)c(-c4nnn[nH]4)cn1c23`, the MIC in the data set on Escherichia coli and in the data set with Staphylococcus aureus was more than 257 µM in each case. Also, in data set [1], the half-maximal inhibitory concentration (IC50) turned out to be 0.02 µM.
As for `C[C@H]1COc2c(NCCNc3ccccn3)c(F)c(N)c3c(=O)c(C(=O)O)cn1c23`, the MIC was determined as 4 µM (≈ 1.65 µg/mL) with Escherichia coli and 2 µM (≈ 0.827 µg/mL) against Staphylococcus aureus.
On to `C[C@H]1COc2c(NCCCc3ccccc3)c(F)c(N)c3c(=O)c(C(N)=O)cn1c23`, for which the MIC against Escherichia coli was more than 78 µM; in the data set on Staphylococcus aureus it was 78 µM (≈ 32 µg/mL). The same compound gave an IC50 in data set [1] of 0.067 µM.
The matching figures for `C[C@H]1COc2c(NCCCn3ccnc3)c(F)c(N)c3c(=O)c(C(N)=O)cn1c23`: more than 249 µM, more than 249 µM and 0.18 µM.
For the compound `C[C@H]1COc2c(NCCCc3ccccn3)c(F)c(N)c3c(=O)c(C(=N)NO)cn1c23`, 0.071 µM corresponded to half-maximal inhibition in data set [1] (IC50).
As to `C[C@H]1COc2c(NCCCn3ccnc3)c(F)c(N)c3c(=O)c(C(=N)NO)cn1c23`, 0.14 µM corresponded to half-maximal inhibition in data set [1] (IC50).
For `C[C@H]1COc2c(NCCCn3ccnc3)c(F)c(N)c3c(=O)c(C(=O)O)cn1c23`, the MIC with Escherichia coli worked out at 16 µM (≈ 6.42 µg/mL); against Staphylococcus aureus it was 8 µM (≈ 3.21 µg/mL). In data set [1], this compound registered a half-maximal inhibitory concentration (IC50) of 0.15 µM.
The corresponding values for `C[C@H]1COc2c(NCCCc3ccccc3)c(F)c(N)c3c(=O)c(C(=O)O)cn1c23` are more than 39 µM, 2 µM (≈ 0.823 µg/mL) and 0.04 µM.
As for `C[C@H]1COc2c(NCCCc3ccccn3)c(F)c(N)c3c(=O)c(-c4nnn[nH]4)cn1c23`, the MIC is more than 274 µM against Escherichia coli and 69 µM (≈ 30.1 µg/mL) against Staphylococcus aureus. In data set [1], this compound displayed a 50% inhibitory concentration (IC50) of 0.0024 µM.
